Legend:
xanthine oxidase [1] = target: T1, xanthine oxidase (Homo sapiens, UniProt P47989); assay: Inhibition mode determination by Lineweaver-Burk plot; format: biochemical; conditions: 0.3, 0.4 or 0.6 mM substrate
Experimental: 798 μL of 0.1 unit xanthine oxidase in 200 mM sodium pyrophosphate/sodium chloride buffer (soudium pyrophosphate/HCl, pH 7.5) were mixed with 2 μL of DMSO dissolved melanoxetin, 7,8,3′,4′-tetrahydroxyflavon or okanin in 96-well plate at 37° C. for 5 minutes. 0.3, 0.4, or 0.6 mM substrate dissolved in double distilled water were added to start the reaction. OD 295 nm absorbance was detected every one minute by ELISA reader for total eight minutes at ambient temperature. Excel software was used for analyzing the result of enzyme.

xanthine oxidase [2] = target: T1, xanthine oxidase; assay: Xanthine oxidase inhibition assay (uric acid formation, OD 295 nm); format: biochemical; conditions: for EC50: isolated major compounds, read-out: EC50 of inhibitory activity on xanthine oxidase; for xanthine oxidase inhibitory activity as fold of allopurinol: relative to allopurinol EC50
Experimental: Various parts of Acacia confusa were cold extracted by ethanol for 3 times, 7 days for each time. The extraction solution was vacuum filtered with Whatman #1 filter paper to remove impurities. The filtered extraction solution was concentrated by rotatory vacuum evaporator and lyophilized by a lyophilizer for xanthine oxidase inhibition assay. This assay was detecting xanthine derived uric acid, which was catalyzed by xanthine oxidase, at specific absorbance of UV 295 nm. Therefore, 2 μL of various concentrations of sample were mixed with 798 μL of sodium pyrophosphate buffer (pH 7.5) and 0.1 U of xanthine oxidase for 5 min at 37° C. 200 μL of 0.6 mM xanthine were added and vortex to mix thoroughly, and measured OD 295 nm absorbance by UV/visible light spectrophotometer. Finally, xanthine oxidase inhibitory rate of extracts (%) was calculated.

T1 sequence (P47989 whole entry, species assumed): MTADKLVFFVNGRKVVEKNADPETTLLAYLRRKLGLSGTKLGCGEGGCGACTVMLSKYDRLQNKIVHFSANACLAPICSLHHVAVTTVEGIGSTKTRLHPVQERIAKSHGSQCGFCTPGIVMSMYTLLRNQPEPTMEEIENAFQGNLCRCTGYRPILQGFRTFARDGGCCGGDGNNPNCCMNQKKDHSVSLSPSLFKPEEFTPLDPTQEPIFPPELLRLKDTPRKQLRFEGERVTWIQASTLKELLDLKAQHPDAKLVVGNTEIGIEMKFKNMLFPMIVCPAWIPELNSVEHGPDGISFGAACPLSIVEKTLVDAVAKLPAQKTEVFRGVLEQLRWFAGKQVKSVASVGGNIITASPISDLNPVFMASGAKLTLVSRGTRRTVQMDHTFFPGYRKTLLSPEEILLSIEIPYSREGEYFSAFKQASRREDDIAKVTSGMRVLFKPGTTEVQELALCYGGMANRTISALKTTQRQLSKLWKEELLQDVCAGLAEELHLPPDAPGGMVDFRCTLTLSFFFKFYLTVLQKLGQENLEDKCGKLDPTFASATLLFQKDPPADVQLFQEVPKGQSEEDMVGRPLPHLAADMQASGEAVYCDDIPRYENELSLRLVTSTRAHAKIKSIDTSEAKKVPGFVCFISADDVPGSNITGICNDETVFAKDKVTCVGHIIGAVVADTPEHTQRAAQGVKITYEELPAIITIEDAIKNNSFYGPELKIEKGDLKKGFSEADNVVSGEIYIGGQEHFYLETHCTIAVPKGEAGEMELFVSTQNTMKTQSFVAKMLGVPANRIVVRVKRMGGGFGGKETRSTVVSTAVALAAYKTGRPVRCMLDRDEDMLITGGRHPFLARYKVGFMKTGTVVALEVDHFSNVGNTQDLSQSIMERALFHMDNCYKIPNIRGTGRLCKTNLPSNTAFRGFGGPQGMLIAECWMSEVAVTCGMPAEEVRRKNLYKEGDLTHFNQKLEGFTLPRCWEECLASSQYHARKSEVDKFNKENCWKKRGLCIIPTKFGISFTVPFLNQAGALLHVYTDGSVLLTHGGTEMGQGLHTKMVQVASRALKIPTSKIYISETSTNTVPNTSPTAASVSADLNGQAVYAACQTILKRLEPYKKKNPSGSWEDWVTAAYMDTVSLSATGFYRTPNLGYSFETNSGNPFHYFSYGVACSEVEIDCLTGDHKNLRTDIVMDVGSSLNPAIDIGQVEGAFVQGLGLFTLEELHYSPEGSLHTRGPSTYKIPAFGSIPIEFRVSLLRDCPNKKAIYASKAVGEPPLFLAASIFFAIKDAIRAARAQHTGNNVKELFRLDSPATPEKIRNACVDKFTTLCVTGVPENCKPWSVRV

| inhibition mode on xanthine oxidase (Lineweaver-Burk plot) (xanthine oxidase [1]) | EC50 (xanthine oxidase [2]) [nM] | xanthine oxidase inhibitory activity as fold of allopurinol (xanthine oxidase [2]) [fold] | SMILES | inhibition at 5 µg/mL (xanthine oxidase [2]; at concentration of 5 μg/mL) [%] |
| --- | --- | --- | --- | --- |
| competitive inhibition mode |  |  | O=c1cc(-c2ccc(O)c(O)c2)oc2c(O)c(O)ccc12 [7,8,3′,4′-tetrahydroxyflavon] |  |
| competitive inhibition mode | 274 | 17 | O=c1c(O)c(-c2ccc(O)c(O)c2)oc2c(O)c(O)ccc12 [melanoxetin, 3,7,8,3′,4′-pentahydroxyflavone] |  |
| non-competitive inhibition mode | 74 | 63 | O=C(/C=C/c1ccc(O)c(O)c1)c1ccc(O)c(O)c1O [okanin, 3,4,2′,3′,4′-pentahydroxy trans-chalcone] |  |

| SMILES | inhibition mode on xanthine oxidase (Lineweaver-Burk plot) (xanthine oxidase [1]) | EC50 (xanthine oxidase [2]) [nM] | xanthine oxidase inhibitory activity as fold of allopurinol (xanthine oxidase [2]) [fold] | inhibition at 5 µg/mL (xanthine oxidase [2]; at concentration of 5 μg/mL) [%] |
| --- | --- | --- | --- | --- |
| Oc1ncnc2[nH]ncc12 [allopurinol, reference compound] | competitive inhibition mode |  |  | 78 |

— patent publication US20100310688A1, “ACACIA EXTRACTS AND THEIR COMPOUNDS ON INHIBITION OF XANTHINE OXIDASE” (NATIONAL TAIWAN UNIVERSITY, priority 2009, published 2010)
